Measurements as given in patent US9067935B2 (Janssen Pharmaceutica, NV, priority 2010, dated 2015).
pEC50, pIC50: −log10 of the molar value. Like-named read-outs stand apart in the source and are kept apart here.

Target: canine TRPM8 (Canis lupus familiaris, UniProt Q1A7N1)
Test: In Vitro Canine TRPM8 Functional Assay (intracellular Ca2+ fluorescence, icilin challenge)
Assay type: cell-based
Settings: for pIC50: icilin at ~80% maximal response
Description: The functional activity of compounds of the formula (I) was determined by measuring changes in intracellular calcium concentration using a Ca^2+-sensitive fluorescent dye. The changes in fluorescent signal were monitored by a fluorescence plate reader, either a FLIPR™ (Molecular Devices) or FDSS (Hamamatsu).
At 24 hrs prior to assay, HEK293 cells stably expressing canine TRPM8 were seeded in culture medium in black wall, clear-base poly-D-lysine coated 384-well plates (BD Biosciences, NJ, USA) and grown overnight in 5% CO2 at 37° C. On assay day, growth media was removed and cells were loaded with Calcium 3 Dye (Molecular Devices) for 35 min at 37° C., under 5% CO2 and then for 25 min at room temperature and atmosphere. Subsequently, cells were tested for agonist-induced increases in intracellular Ca^2+ levels using FLIPR™ or FDSS. Cells were challenged with a compound of the Formula (I) (at varying concentrations) and intracellular Ca^2+ was measured for 5 min prior to the addition of icilin to all wells to achieve a final concentration that produces approximately an 80% maximal response. EC50 or IC50 values for compounds of the present invention were determined from eight-point dose-response studies. Curves were generated using the average of quadruplicate wells for each data point.

[1] = HEK293 cells stably expressing canine TRPM8
[2] = HEK293, @ 0.2 μM, HEK293 cells stably expressing canine TRPM8, read-out: % Inh (%) @ 0.2 μM
[3] = HEK293, read-out: % Inh (%) @ 0.2 μM

Sequence of canine TRPM8 (Q1A7N1 1-1104): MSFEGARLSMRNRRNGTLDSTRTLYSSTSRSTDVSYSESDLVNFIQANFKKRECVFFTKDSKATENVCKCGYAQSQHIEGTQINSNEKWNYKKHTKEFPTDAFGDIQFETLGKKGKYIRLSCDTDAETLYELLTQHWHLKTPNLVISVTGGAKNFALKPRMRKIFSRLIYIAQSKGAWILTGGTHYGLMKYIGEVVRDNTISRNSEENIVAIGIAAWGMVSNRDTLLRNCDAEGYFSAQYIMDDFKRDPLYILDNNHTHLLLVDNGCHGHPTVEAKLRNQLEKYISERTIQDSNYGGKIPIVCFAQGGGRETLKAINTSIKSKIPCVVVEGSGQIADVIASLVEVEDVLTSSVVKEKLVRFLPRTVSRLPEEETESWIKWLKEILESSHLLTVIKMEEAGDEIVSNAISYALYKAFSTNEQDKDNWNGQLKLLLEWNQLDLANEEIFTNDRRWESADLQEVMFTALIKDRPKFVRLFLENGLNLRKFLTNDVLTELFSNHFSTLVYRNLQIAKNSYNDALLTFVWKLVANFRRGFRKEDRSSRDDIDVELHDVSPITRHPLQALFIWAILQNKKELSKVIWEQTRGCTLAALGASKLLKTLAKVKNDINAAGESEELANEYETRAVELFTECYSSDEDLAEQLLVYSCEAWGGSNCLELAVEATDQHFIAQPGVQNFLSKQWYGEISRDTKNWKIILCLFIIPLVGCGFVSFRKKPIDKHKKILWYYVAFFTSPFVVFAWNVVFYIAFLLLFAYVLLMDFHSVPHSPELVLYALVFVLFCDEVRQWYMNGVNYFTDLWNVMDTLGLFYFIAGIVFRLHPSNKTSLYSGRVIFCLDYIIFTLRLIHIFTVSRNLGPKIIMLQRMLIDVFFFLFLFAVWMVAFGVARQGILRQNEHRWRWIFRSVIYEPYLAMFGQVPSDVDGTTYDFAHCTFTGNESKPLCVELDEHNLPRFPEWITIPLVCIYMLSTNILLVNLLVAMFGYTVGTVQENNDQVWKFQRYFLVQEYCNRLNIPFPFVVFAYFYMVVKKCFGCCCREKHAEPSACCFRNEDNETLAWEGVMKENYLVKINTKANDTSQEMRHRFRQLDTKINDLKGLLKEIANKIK

SMILES	pIC50 [1]	inhibition at 0.2 µM [2] [%]	pEC50 [1]	inhibition at 0.2 µM [3] [%]	% Inh (%) @ 0.2 μM [1] [%]
CCc1c(N(CCCCC(F)(F)F)S(=O)(=O)c2ccccc2)nc2c(C(F)(F)F)cccn12 [Compound 64]	7.66	99	–	–	–
O=S(=O)(c1ccccc1)N(Cc1ccc(C(F)(F)F)cc1)c1nc2ccccn2c1C1CC1 [Compound 72]	7.95	101	–	–	–
Cc1c(N(Cc2ccc(F)c(C(F)(F)F)c2)S(=O)(=O)c2ccc(C(=O)O)cc2)nc2ccc(Cl)cn12 [Compound 115]	–	–	–	96	–
O=S(=O)(c1ccc(-n2cccn2)cc1)N(Cc1ccc(OC(F)(F)F)cc1)c1nc2ccccn2c1Cl [Compound 97]	8.07	99	–	–	–
CC(C)c1c(N(Cc2ccc(OC(F)(F)F)cc2)S(=O)(=O)c2ccccc2)nc2ccccn12 [Compound 52]	8.03	101	–	–	–
O=S(=O)(c1ccc(F)cc1)N(Cc1ccc(OC(F)(F)F)cc1)c1nc2ccccn2c1Cl [Compound 9]	7.87	–	–	–	–
O=S(=O)(c1ccc(N2CCOCC2)nc1)N(Cc1ccc(OC(F)(F)F)cc1)c1nc2ccc(Cl)cn2c1Cl [Compound 76]	7.15	72	–	–	–
O=S(=O)(c1ccc(-n2cccn2)cc1)N(Cc1ccc(OC(F)(F)F)cc1)c1nc2ccccn2c1Br [Compound 77]	8.64	100	–	–	–
CCc1c(N(Cc2ccc(C(F)(F)F)c(F)c2)S(=O)(=O)c2ccc(N3CCOCC3)nc2)nc2ccc(Cl)cn12 [Compound 87]	7.06	86	–	–	–
CCc1c(N(Cc2ccc(OC(F)(F)F)cc2)S(=O)(=O)c2ccccc2)nc2c(C(F)(F)F)cccn12 [Compound 57]	7.02	82	–	–	–
CC(C)c1c(N(Cc2cccc(C(F)(F)F)c2)S(=O)(=O)c2ccccc2)nc2ccccn12 [Compound 54]	8.10	101	–	–	–
Cc1ccn2c(C)c(N(Cc3ccc(F)c(C(F)(F)F)c3)S(=O)(=O)c3ccc(Br)cc3)nc2c1 [Compound 42]	7.60	99	–	–	–
O=S(=O)(c1ccccc1)N(Cc1ccc(F)c(C(F)(F)F)c1)c1nc2ccccn2c1C1CC1 [Compound 69]	7.55	–	–	–	101
O=S(=O)(c1ccc(-n2cccn2)cc1)N(Cc1ccc(C(F)(F)F)cc1)c1nc2ccccn2c1Cl [Compound 98]	8.39	99	–	–	–
O=S(=O)(c1ccc(-n2cccn2)cc1)N(Cc1cccc(C(F)(F)F)c1)c1nc2ccccn2c1Cl [Compound 99]	7.82	99	–	–	–
O=S(=O)(c1ccc(N2CCOCC2)nc1)N(Cc1ccc(C(F)(F)F)c(F)c1)c1nc2ccccn2c1Br [Compound 85]	7.51	100	–	–	–
O=S(=O)(c1ccc(N2CCOCC2)nc1)N(Cc1cccc(C(F)(F)F)c1)c1nc2ccccn2c1Cl [Compound 94]	7.32	97	–	–	–
O=S(=O)(c1ccc(N2CCOCC2)nc1)N(Cc1ccc(F)c(C(F)(F)F)c1)c1nc2ccccn2c1Br [Compound 86]	7.97	99	–	–	–
O=C(O)c1ccc(S(=O)(=O)N(Cc2ccc(OC(F)(F)F)cc2)c2nc3ccccn3c2Cl)cc1 [Compound 6]	–	–	–	102	–
Cc1c(N(Cc2ccc(OC(F)(F)F)cc2)S(=O)(=O)c2ccc(C(=O)O)cc2)nc2c(F)cccn12 [Compound 122]	8.39	–	–	–	99
O=S(=O)(c1ccc(N2CCOCC2)nc1)N(Cc1ccc(C(F)(F)F)c(F)c1)c1nc2ccc(Cl)cn2c1Cl [Compound 74]	7.20	74	–	–	–
O=S(=O)(c1ccccc1)N(Cc1ccc(C(F)(F)F)c(F)c1)c1cn2ccccc2n1 [Compound 24]	7.87	–	–	–	–
CCc1c(N(CC2CC2)S(=O)(=O)c2ccccc2)nc2c(C(F)(F)F)cccn12 [Compound 65]	7.20	72	–	–	–
Cc1ccn2c(C)c(N(Cc3ccc(OC(F)(F)F)cc3)S(=O)(=O)c3ccc(F)cc3)nc2c1 [Compound 67]	7.21	96	–	–	–
Cc1c(N(Cc2ccc(OC(F)(F)F)cc2)S(=O)(=O)CCN(CC(C)C)CC(C)C)nc2cc(C(F)(F)F)ccn12 [Compound 106, N-(4-Trifluoromethoxybenzyl)-N-(7-trifluoromethyl-3-methylimidazo[1,2-a]pyridin-2-yl)-2-(N,N-diisobutylamino)ethylsulfonamide]	–	–	7.03	–	–
O=S(=O)(c1ccc(N2CCOCC2)nc1)N(Cc1ccc(OC(F)(F)F)cc1)c1nc2ccccn2c1Cl [Compound 92]	7.60	99	–	–	–

Continued, in another order:

pIC50 [1]	inhibition at 0.2 µM [2] [%]	pEC50 [1]	SMILES	inhibition at 0.2 µM [3] [%]	% Inh (%) @ 0.2 μM [1] [%]
7.80	–	–	Cc1c(N(Cc2ccc(F)c(C(F)(F)F)c2)S(=O)(=O)c2ccccc2)nc2cc(Cl)ccn12 [Compound 15]	–	–
–	22	–	Cc1c(N(Cc2ccc(C(F)(F)F)c(F)c2)S(=O)(=O)c2ccccc2)nc2cc(C(F)(F)F)ccn12 [Compound 101]	–	–
7.65	100	–	Cc1c(N(Cc2ccc(OC(F)(F)F)cc2)S(=O)(=O)c2ccccc2)nc2ccc(Cl)cn12 [Compound 36]	–	–
7.57	99	–	Cc1cccn2c(C)c(N(Cc3ccc(C(F)(F)F)cc3)S(=O)(=O)c3ccccc3)nc12 [Compound 33]	–	–
7.38	100	–	CCc1c(N(Cc2ccc(C(F)(F)F)c(F)c2)S(=O)(=O)c2ccc(-n3cccn3)cc2)nc2ccc(Cl)cn12 [Compound 88]	–	–
7.31	–	–	O=S(=O)(c1ccccc1)N(Cc1ccc(F)c(C(F)(F)F)c1)c1cn2ccccc2n1 [Compound 13]	–	–
7.61	99	–	Cc1c(N(Cc2ccc(C(F)(F)F)cc2)S(=O)(=O)c2ccccc2)nc2ccc(Cl)cn12 [Compound 43]	–	–
–	56	–	O=S(=O)(c1ccccc1)N(Cc1ccc(F)c(C(F)(F)F)c1)c1nc2ccc(C(F)(F)F)cn2c1Cl [Compound 62]	–	–
7.65	100	–	Cc1ccc2nc(N(Cc3ccc(F)c(C(F)(F)F)c3)S(=O)(=O)c3ccccc3)c(C)n2c1 [Compound 40]	–	–
7.53	–	–	O=S(=O)(c1ccccc1)N(Cc1ccc(OC(F)(F)F)cc1)c1nc2ccc(Cl)cn2c1Cl [Compound 7]	–	–
7.84	–	–	Cc1c(N(Cc2ccc(OC(F)(F)F)cc2)S(=O)(=O)c2ccccc2)nc2ccc(F)cn12 [Compound 19]	–	–
7.52	98	–	Cc1c(N(Cc2ccc(C(F)(F)F)cc2)S(=O)(=O)c2ccc(-n3cccn3)cc2)nc2ccc(Cl)cn12 [Compound 105]	–	–
8.10	100	–	Cc1ccn2c(C)c(N(Cc3ccc(F)c(C(F)(F)F)c3)S(=O)(=O)c3ccccc3)nc2c1 [Compound 28]	–	–
8.74	–	–	O=S(=O)(c1ccccc1)N(Cc1ccc(OC(F)(F)F)cc1)c1nc2ccccn2c1Cl [Compound 3]	–	–
8.50	101	–	CC(C)c1c(N(Cc2ccc(C(F)(F)F)cc2)S(=O)(=O)c2ccccc2)nc2ccccn12 [Compound 53]	–	–
7.41	99	–	Cc1c(N(Cc2cccc(OC(F)(F)F)c2)S(=O)(=O)c2ccccc2)nc2ccc(Cl)cn12 [Compound 45]	–	–
7.92	99	–	CCc1c(N(Cc2ccc(C(F)(F)F)c(F)c2)S(=O)(=O)c2ccccc2)nc2cccc(C)n12 [Compound 80]	–	–
7.74	100	–	Cc1c(N(Cc2cccc(C(F)(F)F)c2)S(=O)(=O)c2ccccc2)nc2ccc(Cl)cn12 [Compound 44]	–	–
8.00	–	–	Cc1c(N(Cc2ccc(F)c(C(F)(F)F)c2)S(=O)(=O)c2ccccc2)nc2ccc(F)cn12 [Compound 20]	–	–
7.90	100	–	Cc1cccn2c(C)c(N(Cc3ccc(C(F)(F)F)c(F)c3)S(=O)(=O)c3ccccc3)nc12 [Compound 32]	–	–
7.91	101	–	CC(C)c1c(N(Cc2ccc(F)c(C(F)(F)F)c2)S(=O)(=O)c2ccccc2)nc2ccccn12 [Compound 50]	–	–
7.96	99	–	Cc1cccc2nc(N(Cc3ccc(F)c(C(F)(F)F)c3)S(=O)(=O)c3ccccc3)c(C)n12 [Compound 48]	–	–
7.49	90	–	O=S(=O)(c1ccccc1)N(Cc1ccc(C(F)(F)F)c(F)c1)c1nc2ccc(Cl)cn2c1Cl [Compound 29]	–	–
8.00	100	–	Cc1ccn2c(C)c(N(Cc3ccc(OC(F)(F)F)cc3)S(=O)(=O)c3ccccc3)nc2c1 [Compound 26]	–	–
8.21	100	–	Cc1ccn2c(C)c(N(Cc3ccc(C(F)(F)F)c(F)c3)S(=O)(=O)c3ccccc3)nc2c1 [Compound 27]	–	–
7.61	98	–	Cc1c(N(Cc2ccc(C(F)(F)F)c(F)c2)S(=O)(=O)c2ccc(-n3cccn3)cc2)nc2ccc(Cl)cn12 [Compound 103]	–	–
7.87	99	–	Cc1c(N(Cc2ccc(F)c(Cl)c2)S(=O)(=O)c2ccccc2)nc2ccc(Cl)cn12 [Compound 46]	–	–
8.09	101	–	O=S(=O)(c1ccccc1)N(Cc1ccc(C(F)(F)F)c(F)c1)c1nc2ccccn2c1C1CC1 [Compound 70]	–	–
7.85	100	–	CCc1c(N(Cc2ccc(F)c(C(F)(F)F)c2)S(=O)(=O)c2ccccc2)nc2ccc(Cl)cn12 [Compound 82]	–	–
